{
  "source": "patent US9695155B2",
  "about": "“Herbicidal substituted pyrimidinyloxy benzene compounds” (E. I. DU PONT DE NEMOURS AND COMPANY, priority 2013, dated 2017)",
  "key": {"[1]": {"tested_on": "large (Lg) crabgrass", "test": "Test A preemergence", "format": "in vivo, Digitaria sanguinalis", "settings": "0 to 100 scale where 0 is no effect and 100 is complete control", "how_it_was_run": "(§1)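 Scoring: eye-based comparison with untreated controls, 0 for no effect through 100 for complete control, at about day 10. Treatments: directed soil spray preemergence; foliar spray postemergence on 2–10 cm plants at the one- to two-leaf stage. Medium: loam soil with sand.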"}, "[2]": {"tested_on": "morningglory", "test": "Test A preemergence", "format": "in vivo, Ipomoea spp.", "how_it_was_run": "as §1"}, "[3]": {"tested_on": "velvetleaf", "test": "Test A preemergence", "format": "in vivo, Abutilon theophrasti", "how_it_was_run": "as §1"}, "[4]": {"tested_on": "corn", "test": "Test A preemergence", "format": "in vivo, Zea mays", "settings": "0 to 100 scale where 0 is no effect and 100 is complete control", "how_it_was_run": "as §1"}, "[5]": {"tested_on": "barnyardgrass", "test": "Test A postemergence", "format": "in vivo, Echinochloa crus-galli", "settings": "0 to 100 scale where 0 is no effect and 100 is complete control", "how_it_was_run": "as §1"}, "[6]": {"tested_on": "wheat", "test": "Test A postemergence", "format": "in vivo, Triticum aestivum", "settings": "0 to 100 scale where 0 is no effect and 100 is complete control", "how_it_was_run": "as §1"}, "[7]": {"tested_on": "rice", "test": "Test B flooded paddy test", "format": "in vivo, Oryza sativa", "settings": "Flood, 250 g ai/ha; 0 to 100 scale where 0 is no effect and 100 is complete control", "how_it_was_run": "(§2)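 Plants at 2-leaf stage; pots flooded to 3 cm above soil and compound applied directly into paddy water, depth held throughout. After 13 to 15 days in greenhouse, visual rating versus controls on 0 (no effect) to 100 (complete control) scale.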"}, "[8]": {"tested_on": "sedge, umbrella", "test": "Test B flooded paddy test", "format": "in vivo, Cyperus difformis", "settings": "Flood, 250 g ai/ha; 0 to 100 scale where 0 is no effect and 100 is complete control", "how_it_was_run": "as §2"}, "[9]": {"tested_on": "Heteranthera limosa", "test": "Test B flooded paddy test", "format": "in vivo", "settings": "Flood, 250 g ai/ha; 0 to 100 scale where 0 is no effect and 100 is complete control", "how_it_was_run": "as §2"}, "[10]": {"tested_on": "barnyardgrass", "test": "Test B flooded paddy test", "format": "in vivo, Echinochloa crus-galli", "settings": "Flood, 250 g ai/ha; 0 to 100 scale where 0 is no effect and 100 is complete control", "how_it_was_run": "as §2"}, "[11]": {"tested_on": "wheat, winter", "test": "Test C postemergence", "format": "in vivo, Triticum aestivum", "how_it_was_run": "(§3)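 Seeds were sown in loam–sand blend and sprayed preemergence, while plants at 1- to 4-leaf stage (2–18 cm) in peat-based medium received postemergence sprays; test chemicals were formulated in a non-phytotoxic solvent with surfactant. After 13–15 days in a greenhouse, injury was rated visually against controls, 0 (no effect) to 100 (complete control).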"}, "[12]": {"tested_on": "corn", "test": "Test C postemergence", "format": "in vivo, Zea mays", "how_it_was_run": "as §3"}, "[13]": {"tested_on": "giant foxtail", "test": "Test C postemergence", "format": "in vivo, Setaria faberii", "how_it_was_run": "as §3"}, "[14]": {"tested_on": "morningglory", "test": "Test C postemergence", "format": "in vivo, Ipomoea coccinea", "how_it_was_run": "as §3"}, "[15]": {"tested_on": "yellow nutsedge", "test": "Test C postemergence", "format": "in vivo, Cyperus esculentus", "how_it_was_run": "as §3"}, "[16]": {"tested_on": "ragweed", "test": "Test C postemergence", "format": "in vivo, Ambrosia elatior", "how_it_was_run": "as §3"}, "[17]": {"tested_on": "soybean", "test": "Test C postemergence", "format": "in vivo, Glycine max", "how_it_was_run": "as §3"}, "[18]": {"settings": "500 g ai/ha, 0 to 100 scale where 0 is no effect and 100 is complete control"}, "[19]": {"settings": "16 g ai/ha, postemergence, 0 is no effect, 100 is complete control"}, "[20]": {"settings": "31 g ai/ha, postemergence, visual rating, scale 0 to 100 (0 no effect, 100 complete control), 13 to 15 days"}, "[21]": {"settings": "125 g ai/ha, postemergence, visual rating, scale 0 to 100 (0 no effect, 100 complete control)"}, "[22]": {"settings": "Postemergence, 62 g ai/ha, scale 0 to 100 (0 no effect, 100 complete control)"}},
  "data": [
    {"smiles": "Fc1cnc(Oc2cccc(C(F)F)c2-n2cc(C(F)(F)F)cn2)nc1", "note": "[Compound 164]", "values": [
      {"measurement": "Plant response rating, Crabgrass, Large", "setting": "[1]; 125 g ai/ha", "result": 100},
      {"measurement": "Crabgrass, Large plant response rating", "setting": "[1]; 500 g ai/ha", "result": 100},
      {"measurement": "Morningglory plant response rating (0 to 100 scale)", "setting": "[2]; 125 g ai/ha", "result": 80},
      {"measurement": "Morningglory plant response rating", "setting": "[2]; [18]", "result": 100},
      {"measurement": "Velvetleaf plant response rating (0 to 100 scale)", "setting": "[3]; 125 g ai/ha", "result": 100},
      {"measurement": "Velvetleaf plant response rating", "setting": "[3]; [18]", "result": 100},
      {"measurement": "Plant response rating, Corn", "setting": "[4]; 125 g ai/ha", "result": 10},
      {"measurement": "Corn plant response rating", "setting": "[4]; 500 g ai/ha", "result": 60},
      {"measurement": "Barnyardgrass plant response rating", "setting": "[5]; 125 g ai/ha", "result": 70},
      {"measurement": "Plant response rating, Barnyardgrass", "setting": "[5]; 500 g ai/ha", "result": 100},
      {"measurement": "Wheat plant response rating", "setting": "[6]; 125 g ai/ha", "result": 70},
      {"measurement": "Plant response rating, Wheat", "setting": "[6]; 500 g ai/ha", "result": 90},
      {"measurement": "Plant response rating, Rice", "setting": "[7]", "result": 0},
      {"measurement": "Plant response rating, Sedge, Umbrella", "setting": "[8]", "result": 90},
      {"measurement": "Plant response rating, Ducksalad", "setting": "[9]", "result": 100},
      {"measurement": "Plant response rating, Barnyardgrass", "setting": "[10]", "result": 20},
      {"measurement": "Plant response rating (0 to 100), Wheat", "setting": "[11]; [19]", "result": 0},
      {"measurement": "Wheat plant response rating", "setting": "[11]; [20]", "result": 0},
      {"measurement": "Plant response rating, Wheat", "setting": "[11]; [21]", "result": 0},
      {"measurement": "Plant response rating, Wheat", "setting": "[11]; [22]", "result": 0},
      {"measurement": "Plant response rating (0 to 100), Corn", "setting": "[12]; [19]", "result": 0},
      {"measurement": "Corn plant response rating", "setting": "[12]; [20]", "result": 5},
      {"measurement": "Plant response rating, Corn", "setting": "[12]; [21]", "result": 5},
      {"measurement": "Plant response rating, Corn", "setting": "[12]; [22]", "result": 5},
      {"measurement": "Plant response rating (0 to 100), Foxtail, Giant", "setting": "[13]; [19]", "result": 0},
      {"measurement": "Foxtail, Giant plant response rating", "setting": "[13]; [20]", "result": 20},
      {"measurement": "Plant response rating, Foxtail, Giant", "setting": "[13]; [21]", "result": 10},
      {"measurement": "Plant response rating, Foxtail, Giant", "setting": "[13]; [22]", "result": 10},
      {"measurement": "Plant response rating (0 to 100), Morningglory", "setting": "[14]; [19]", "result": 35},
      {"measurement": "Morningglory plant response rating", "setting": "[14]; [20]", "result": 35},
      {"measurement": "Plant response rating, Morningglory", "setting": "[14]; [21]", "result": 80},
      {"measurement": "Plant response rating, Morningglory", "setting": "[14]; [22]", "result": 55},
      {"measurement": "Plant response rating (0 to 100), Nutsedge, Yellow", "setting": "[15]; [19]", "result": 5},
      {"measurement": "Nutsedge, Yellow plant response rating", "setting": "[15]; [20]", "result": 5},
      {"measurement": "Plant response rating, Nutsedge, Yellow", "setting": "[15]; [21]", "result": 5},
      {"measurement": "Plant response rating, Nutsedge, Yellow", "setting": "[15]; [22]", "result": 5},
      {"measurement": "Plant response rating (0 to 100), Ragweed", "setting": "[16]; [19]", "result": 20},
      {"measurement": "Ragweed plant response rating", "setting": "[16]; [20]", "result": 15},
      {"measurement": "Plant response rating, Ragweed", "setting": "[16]; [21]", "result": 55},
      {"measurement": "Plant response rating, Ragweed", "setting": "[16]; [22]", "result": 60},
      {"measurement": "Plant response rating (0 to 100), Soybean", "setting": "[17]; [19]", "result": 40},
      {"measurement": "Soybean plant response rating", "setting": "[17]; [20]", "result": 35},
      {"measurement": "Plant response rating, Soybean", "setting": "[17]; [21]", "result": 65},
      {"measurement": "Plant response rating, Soybean", "setting": "[17]; [22]", "result": 75}
    ]}
  ]
}
